Data: patent US20230404969A1, “COMPOSITIONS AND METHOD FOR EFFECTIVE MANAGEMENT OF PERITONITIS” (priority 2022, published 2023)
“And” between values parts separate entries of the source, which are not always exact repeats. Identical values can stand only once.

Assays:
[1] = tested on: gut bacteria; assay: Bacterial translocation from the gut into organs: total of study group of 30; assay type: in vivo; settings: Withanone 2 mg/kg; positive/30 mice
Protocol: (§1) Peritoneal inflammation was induced by Zymosan A (Sigma Chemical) (Masashi et al. Zymosan, but Not Lipopolysaccharide, Triggers Severe and Progressive Peritoneal Injury Accompanied by complement Activation in a Rat Peritonitis Model) was prepared freshly in sterile, 0.9% w/v saline, and 0.5 ml was injected i.p. from day 0 to Day 5. The lymphocyte population in the peripheral blood was determined with a flow cytometer. Cells were phenotyped by flow cytometry with the following primary antibodies: CD4 (FITC) and CD8 (PE). Cells were gated broadly on all live lymphocyte cells, with only debris and multiple cell clusters being excluded. Analysis of mean fluorescence intensity was done and percentage cell population was evaluated. The test drugs were administered for 30 days after the induction of peritonitis. On 36th day the peritoneal cavity was lavaged with 1.5 ml saline, and after a 30-s gentle manual massage, 0.5 ml exudate was retrieved, centrifuged at 3000 g for 3 min, and frozen at 220° C. prior to cytokine and chemotactic-factor assessment.
(§2) Intestine serves as a barrier in preventing gut bacteria and/or endotoxin from spreading to organs and tissues. It is also known that bacterial translocation occurs in critically ill or immunocompromised patients, and the physical disruption of mucosal barrier in vivo rodent models seem to be a key factor Tor translocation (Deitch et al. Effect of hemorrhagic shock on bacterial translocation, intestinal morphology, and intestinal permeability in conventional and antibiotic-decontaminated rats; Critical Care Medicine; 1990 18(5)). Bacterial translocation from the gut into the peritoneal cavity and organs was analyzed. The mesenteric lymph nodes, liver, and spleen of mice, study group of 30, were removed using sterile instruments. The organs were then homogenized in 1 ml of sterile cooked meat broth and 50 μl of organ homogenate was spread on blood agar plates to detect aerobic bacteria and Eosin Methylene blue agar plates to detect specially for E. coli. These plates were then incubated at 37° C. for 2 days. […]

[2] = tested on: IL-6; assay: Cytometric Bead Array of peritoneal fluid, chronic zymosan peritonitis: IL-6; assay type: in vivo, mouse; settings: 2 mg/kg, vs Zymosan control
Protocol: as §1, with “The test drugs were administered for 30 days after the induction of peritonitis. On 36th day the peritoneal cavity was lavaged with 1.5 ml saline, and after a 30-s gentle manual massage, 0.5 ml exudate was retrieved, centrifuged at 3000 g for 3 min, and frozen at 220° C. prior to cytokine and chemotactic-factor assessment.” left out
The Cytometric Bead Array (Mouse Inflammation kit) was used to study cytokines in peritoneal fluid. […] Briefly, a mixture of 6 capture bead populations (50 μl) with distinct fluorescence intensities (detected in FL3) coated with antibodies specific for the above cytokines was mixed with each sample/standard (50 μl). […] Following acquisition of data by two colour cytometric analysis, the sample results were analysed using CBA software (BD Biosciences). […] Individual cytokine concentration ratios were indicated by their fluorescent intensities and was determined by interpolation from the corresponding standard curve.

[3] = tested on: C3b; assay: Complement activation product C3b in serum (ELISA), chronic zymosan peritonitis; assay type: in vivo, mouse; settings: 2 mg/kg
Protocol: as §1
Complement activation is a system of more than 30 proteins in the plasma and on cell surfaces. The activation takes place by three pathways, classical, lectin, and alternative. […]

[4] = tested on: Proteus mirabilis (Gram-negative); assay: Bacterial translocation from the gut into organs: P. mirabilis; assay type: in vivo; settings: Withanone 2 mg/kg; positive/6 mice
Protocol: as §1, §2

[5] = tested on: Klebsiella pneumoniae (Gram-negative); assay: Bacterial translocation from the gut into organs: K. pneumoniae; assay type: in vivo; settings: Withanone 2 mg/kg; positive/6 mice
Protocol: as §1, §2

[6] = tested on: TNF-α; assay: Extracellular in vivo TNF-α estimation in serum from treated mice after LPS injection (ELISA); settings: 1 mg/kg p.o for 6 days, serum 90 mins after LPS injection, ↑ upregulation
Protocol: BALM male mice aged 6-8 weeks were maintained at 22±2° C. under 12/12 h light dark cycle. Mice received oral treatment of test drugs at graded doses (w/v) for 6 days, followed by intravenous injection of 1 mg/kg (Brieva et al. Immunoferon, a glycoconjugate of natural origin, inhibits LPS-induced TNF-α production and inflammatory responses. International Immunopharmacology (2001) 1, 1979-1987). Six mice were employed in each group and experiments were performed in triplicates. Blood was collected from retro-orbital plexus of the experimental animals and serum was separated. TNF-α, IL-1β production was evaluated by a commercial ELISA kit in serum from treated mice, 90 mins after LPS injection.

CC1=C(C)C(=O)O[C@@H]([C@@H](C)[C@@]2(O)CC[C@H]3[C@@H]4[C@@H]5O[C@@H]5[C@@]5(O)CC=CC(=O)[C@]5(C)[C@H]4CC[C@@]32C)C1 [Withanone]
Bacterial translocation, Liver, total [1]: 3/30 | Bacterial translocation, Mesenteric Lymph Nodes, total [1]: 5 out of 30 and 5/30 | Bacterial translocation, Spleen, total [1]: 3/30 | Inhibition of IL-6 [2]: 61% | Inhibition of complement activation product C3b compared to the Zymosan control [3]: 44% | Bacterial translocation, Liver, p. mirabilis [4]: 0/6 | Bacterial translocation, Mesenteric Lymph Nodes, p. mirabilis [4]: 0/6 | Bacterial translocation, Spleen, p. mirabilis [4]: 0/6 | Bacterial translocation, Liver, k. pneumonia [5]: 0/6 | Bacterial translocation, Mesenteric Lymph Nodes, k. pneumonia [5]: 0/6 | Bacterial translocation, Spleen, k. pneumonia [5]: 1/6 | Percentage TNF-α inhibition compared to LPS control [6]: 37.05%
